The source of these data is US8691799B2, “Materials and methods for treatment of cancer and identification of anti-cancer compounds” (priority 2001, dated 2014).

The subject of one test is phosphotyrosine STAT3. As to the kind of experiment: Cytoblot screening for phospho-STAT3 inhibition in v-Src-transformed NIH 3T3 cells. The test is classed as cell-based, murine. The conditions noted are these: 10 μM, 4 hr. The method, then: Cytoblot Screening for Phospho-STAT3 Inhibition. NIH 3T3 cells stably transfected with v-Src or NIH 3T3 vector control cells (Turkson, J. et al. Mol. Cell Biol., 1999, 19:7519-7528) were plated into sterile, opaque, 96-well tissue culture plates at 25,000 cells/well. After overnight growth at 37° C., the cells were treated for 4 hr in the presence of either vehicle control or 10 μM of NCI Diversity Set compounds (http://dtp.nci.nih.gov/). After treatment, cells were washed in 100 μl cold TBS (10 mM Tris, pH 7.4, 150 mM NaCl), then fixed for one hour at 4° C. with 190 μl per well of cold 3.7% formaldehyde in TBS as described previously (Stockwell, B. R. et al. Chem. Biol., 1999, 6:71-83). Membranes were permeabilized during a five-minute incubation in ice-cold methanol at 4° C. Cells were washed with 180 μl per well 3% milk in TBS then rocked overnight at 4° C. with 50 μl per well of 3% milk in TBS containing 1:1000 dilution of anti-phospho-STAT3 (P-Tyr 705; Cell Signaling Technology, Beverly, Mass.) and 1:2000 dilution of HRP-conjugated goat anti-rabbit IgG (Jackson ImmunoResearch, West Grove, Pa.). Antibodies were aspirated and then plates were washed twice with 180 μl per well TBS. […] Quantification of results was done using GS-700 scanning densitometer (Bio-Rad Laboratories, Hercules, Calif.).

The subject of test [1] is STAT3-dependent pLucTKS3 luciferase reporter. The experiment in a line: STAT3-dependent luciferase reporter assay in v-Src/NIH 3T3 fibroblasts. The format is cell-based, murine. Conditions: 10 μM, 24-48 hr. From the text: (§1) DNA Binding and Transcription. The STAT3 reporter, pLucTKS3, driving expression of firefly luciferase has been previously described (Turkson, J. et al. Mol. Cell Biol., 1999, 19:7519-7528). The pLucTKS3 plasmid harbors seven copies of a sequence corresponding to the STAT3-specific binding site in the promoter of the human C-reactive protein gene (Zhang, D. et al. J. Biol. Chem., 1996, 271:9503-9509). The STAT3-independent plasmid, pRLSRE, contains two copies of the serum response element (SRE) from the c-fos promoter (Yamauchi, K. et al. J. Biol. Chem., 1993, 268:14597-14600), subcloned into renilla luciferase reporter, pRL-null (Promega Corporation, Madison, Wis.).
(§2) Transfection and Generation of Stable Clones. […]
(§3) Preparation of Cytosolic Extracts. […] Cells were resuspended in 0.4 ml of low-salt HEPES buffer (10 mM HEPES, pH 7.8, 10 mM KCl, 0.1 mM EGTA, 0.1 mM EDTA, 1 mM PMSF, and 1 mM DTT) for 15 min, lysed by the addition of 20 μl of 10% NP-40, and centrifuged (10,000×g, 30 sec, 4° C.) to obtain the cytosolic supernatant, which was used for luciferase assays (Promega Corporation) measured with a luminometer.

Test [2] deals with SRE-dependent pRLSRE renilla luciferase reporter. As to the kind of experiment: SRE-dependent luciferase reporter assay in v-Src/NIH 3T3 fibroblasts. The test is classed as cell-based, murine. The conditions noted are these: 10 μM, 24-48 hr.
Text: as §1, §2, §3
(Reporter assays use an easily measured gene product as a stand-in for the process of interest.)

For a further test, the system named is phospho-JNK. The experiment in a line: Western blotting for phospho-JNK. The test is classed as cell-based, human. Conditions: A549 and MDA-MB-468 cells, up to 10 μM. The method, then: Western Blotting. Treated cell samples were lysed in 30 mM Hepes, pH 7.5, 10 mM NaCl, 5 mM MgCl2, 25 mM NaF, 1 mM EGTA, 1% Triton-X-100, 10% glycerol, 2 mM sodium orthovanadate, 10 μg/ml aprotinin, 10 μg/ml soybean trypsin inhibitor, 25 μg/ml leupeptin, 2 mM PMSF, and 6.4 mg/ml p-nitrophenylphosphate. Phospho-STAT3, phospho-AKT, phospho-MEK, and phospho-p42/p44 MAPK antibodies were obtained from Cell Signaling Technologies, Cambridge, Mass. Antibodies to STAT3, JAK2, and phospho-INK were purchased from Santa Cruz Biotechnology, Santa Cruz, Calif. Phospho-JAK2 antibody came from Upstate Biotechnology, Lake Placid, N.Y. Membranes were blocked in either 5% milk in PBS, pH 7.4, containing 0.1% Tween-20 (PBS-T) or 1% BSA in TBS, pH 7.5, containing 0.1% Tween-20 (TBS-T). Phospho-specific antibodies (excepting P-MAPK and P-JNK) were incubated in 1% BSA in TBS-T while all other antibodies were diluted in 5% milk in PBS-T for either 2 hr at room temperature or overnight at 4° C. HRP-conjugated secondary antibodies (Jackson ImmunoResearch) were diluted in 5% milk in either PBS-T or TBS-T at 1:1000 dilution for one hour at room temperature. Western blots were visualized using enhanced chemiluminescence as described previously (Blaskovich, M. A. et al. Nat. Biotechnol., 2000, 18:1065-1070).
On the technique in general: In western blotting, separated proteins are transferred to a membrane and probed.

Turning to `CC(C)(O)/C=C/C(=O)[C@](C)(O)[C@H]1[C@H](O)C[C@@]2(C)[C@@H]3CC=C4[C@@H](C=C(O)C(=O)C4(C)C)[C@]3(C)C(=O)C[C@]12C` [JSI-124, cucurbitacin I], the “phosphotyrosine STAT3 levels (cytoblot)” value with phosphotyrosine STAT3 is recorded as “reduced phosphotyrosine STAT3 to barely detectable levels”. Also, the “induction of STAT3-dependent pLucTKS3 luciferase reporter” value in test [1] was “significantly suppresses”. Further, the “pRLSRE (SRE-dependent) luciferase reporter” value in test [2] is on record as “without affecting”. Moreover, the phospho-JNK levels result in the test on phospho-JNK is “no inhibitory effect”.
